Source: ChEMBL document CHEMBL1201862, “PubChem BioAssay data set” (2004)
The source made the active and inactive calls.

How the values were obtained:
[1] = target: T1, Short transient receptor potential channel 4 (Mus musculus, UniProt Q9QUQ5); assay: calcium entry via TRPC4 opening agents – cell-based, HEK293 TRPC4/mu-opioid, Fluo-4 calcium, dose response (AID 434937); assay type: functional
T1 sequence (Q9QUQ5 whole entry): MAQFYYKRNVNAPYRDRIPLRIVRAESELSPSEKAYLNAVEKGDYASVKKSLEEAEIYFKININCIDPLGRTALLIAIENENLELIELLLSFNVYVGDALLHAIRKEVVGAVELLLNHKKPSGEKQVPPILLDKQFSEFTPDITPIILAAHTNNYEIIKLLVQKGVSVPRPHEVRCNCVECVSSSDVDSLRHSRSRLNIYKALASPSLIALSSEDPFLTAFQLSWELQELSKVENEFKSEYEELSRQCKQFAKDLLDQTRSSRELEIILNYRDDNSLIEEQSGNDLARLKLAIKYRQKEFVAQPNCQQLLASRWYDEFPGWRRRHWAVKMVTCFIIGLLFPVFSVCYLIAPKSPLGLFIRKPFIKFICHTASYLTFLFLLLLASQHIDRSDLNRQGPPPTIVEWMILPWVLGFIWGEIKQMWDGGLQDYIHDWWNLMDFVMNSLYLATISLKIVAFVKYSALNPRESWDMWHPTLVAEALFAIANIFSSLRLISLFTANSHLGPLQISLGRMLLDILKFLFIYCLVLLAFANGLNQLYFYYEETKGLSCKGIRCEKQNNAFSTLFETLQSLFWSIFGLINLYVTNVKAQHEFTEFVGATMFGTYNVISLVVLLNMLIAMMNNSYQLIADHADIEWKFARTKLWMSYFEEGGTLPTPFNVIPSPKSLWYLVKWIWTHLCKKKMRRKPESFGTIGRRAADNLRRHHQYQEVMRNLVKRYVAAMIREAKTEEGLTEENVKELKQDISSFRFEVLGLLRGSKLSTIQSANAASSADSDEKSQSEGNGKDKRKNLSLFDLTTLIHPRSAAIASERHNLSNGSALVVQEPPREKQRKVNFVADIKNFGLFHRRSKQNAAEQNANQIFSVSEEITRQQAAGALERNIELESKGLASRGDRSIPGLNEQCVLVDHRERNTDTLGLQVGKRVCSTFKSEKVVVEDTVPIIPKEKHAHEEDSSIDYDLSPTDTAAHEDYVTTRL

[2] = target: Delta-type opioid receptor (Homo sapiens, UniProt P41143); assay: Counterscreen for agonists of heterodimerization of the mu 1 (OPRM1) and delta 1 (OPRD1) opioid receptors: Luminescence-based cell-based high throughput dose response assay to identify agonists of OPRD1 homodimerization. [Related pubchem assays (depositor defined):AID504326, AID504355, AID504692, AID504904, AID504905]; assay type: functional
Mu-type opioid receptor = Mu-type opioid receptor (Homo sapiens, UniProt P35372); assay: Counterscreen for agonists of heterodimerization of the mu 1 (OPRM1) and delta 1 (OPRD1) opioid receptors: Luminescence-based cell-based high throughput dose response assay to identify agonists of OPRM1 homodimerization.; assay type: functional;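 also: U2OS cells expressing OPRM1 and beta-arrestin as split beta-galactosidase partners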
[3] = target: 5-hydroxytryptamine receptor 5A (Homo sapiens, UniProt P47898); assay: Counterscreen for agonists of OPRM1-OPRD1 heterodimerization: luminescence-based cell-based high throughput dose response assay to identify agonists of 5-hydroxytryptamine (serotonin) 5A receptor (HTR5A). [Related pubchem assays (depositor defined):AID504326, AID504355, AID504692, AID504904, AID504905]; assay type: functional
Aminopeptidase N = target: T2, Aminopeptidase N (Plasmodium falciparum FcB1/Columbia, UniProt O96935); assay: malaria alanyl aminopeptidase activity blockers – biochemical, fluorogenic H-Leu-NHMec substrate, 1536-well (AID 1445); design: species or system Plasmodium falciparum 3D7, 3D7
T2 sequence (O96935 whole entry): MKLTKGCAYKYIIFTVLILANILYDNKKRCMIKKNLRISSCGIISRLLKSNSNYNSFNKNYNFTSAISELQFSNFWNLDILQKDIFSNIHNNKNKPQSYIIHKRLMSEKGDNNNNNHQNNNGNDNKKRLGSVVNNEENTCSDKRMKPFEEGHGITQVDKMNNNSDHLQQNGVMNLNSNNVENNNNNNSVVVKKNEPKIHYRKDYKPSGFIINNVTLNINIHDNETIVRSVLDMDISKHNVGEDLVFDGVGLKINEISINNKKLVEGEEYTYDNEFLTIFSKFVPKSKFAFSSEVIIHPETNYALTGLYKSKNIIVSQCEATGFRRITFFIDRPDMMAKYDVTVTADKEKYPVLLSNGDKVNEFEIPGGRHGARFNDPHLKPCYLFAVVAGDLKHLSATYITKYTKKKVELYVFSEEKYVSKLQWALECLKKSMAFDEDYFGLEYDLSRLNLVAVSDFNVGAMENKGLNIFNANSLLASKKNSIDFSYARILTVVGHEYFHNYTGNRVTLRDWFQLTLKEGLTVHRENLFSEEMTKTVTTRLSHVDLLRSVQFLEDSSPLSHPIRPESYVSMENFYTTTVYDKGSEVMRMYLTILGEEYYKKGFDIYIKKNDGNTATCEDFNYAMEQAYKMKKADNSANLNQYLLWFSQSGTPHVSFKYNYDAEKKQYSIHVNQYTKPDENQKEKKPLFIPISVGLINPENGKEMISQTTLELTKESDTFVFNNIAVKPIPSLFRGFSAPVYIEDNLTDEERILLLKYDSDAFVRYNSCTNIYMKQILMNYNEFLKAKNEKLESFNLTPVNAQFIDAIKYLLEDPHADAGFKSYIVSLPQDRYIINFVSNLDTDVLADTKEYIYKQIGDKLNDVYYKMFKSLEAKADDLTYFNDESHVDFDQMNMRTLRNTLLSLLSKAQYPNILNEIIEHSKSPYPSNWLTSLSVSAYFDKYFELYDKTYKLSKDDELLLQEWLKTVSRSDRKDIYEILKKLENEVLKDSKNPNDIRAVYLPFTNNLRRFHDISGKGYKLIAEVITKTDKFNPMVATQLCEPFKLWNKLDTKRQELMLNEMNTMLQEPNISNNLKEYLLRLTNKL

Trypsin = Trypsin (Sus scrofa, UniProt P00761); assay: trypsin protease activity blockade – biochemical, quenched peptide fluorescence, cherry-pick, selectivity assay for Rce1 protease inhibitor project, dose response (AID 488789)
CAAX prenyl protease 2 [4] = target: T3, CAAX prenyl protease 2 (Saccharomyces cerevisiae S288c, UniProt Q03530); assay type: biochemical
T3 sequence (Q03530 whole entry): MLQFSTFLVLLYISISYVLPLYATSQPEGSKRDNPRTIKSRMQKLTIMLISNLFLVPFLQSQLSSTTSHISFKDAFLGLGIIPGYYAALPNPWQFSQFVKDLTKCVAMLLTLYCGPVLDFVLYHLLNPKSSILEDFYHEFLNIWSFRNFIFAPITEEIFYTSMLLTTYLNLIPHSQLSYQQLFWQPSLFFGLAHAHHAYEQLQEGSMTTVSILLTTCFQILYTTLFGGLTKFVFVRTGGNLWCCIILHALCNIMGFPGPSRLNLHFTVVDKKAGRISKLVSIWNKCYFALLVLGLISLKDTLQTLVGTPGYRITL

CAAX prenyl protease 2 [5] = target: T4, CAAX prenyl protease 2 (Homo sapiens, UniProt Q9Y256); assay: inhibition of Ras-converting CAAX protease Rce1 – biochemical, yeast membranes, quenched-peptide fluorescence, cherry-pick, dose response (AID 588849)
T4 sequence (Q9Y256 whole entry): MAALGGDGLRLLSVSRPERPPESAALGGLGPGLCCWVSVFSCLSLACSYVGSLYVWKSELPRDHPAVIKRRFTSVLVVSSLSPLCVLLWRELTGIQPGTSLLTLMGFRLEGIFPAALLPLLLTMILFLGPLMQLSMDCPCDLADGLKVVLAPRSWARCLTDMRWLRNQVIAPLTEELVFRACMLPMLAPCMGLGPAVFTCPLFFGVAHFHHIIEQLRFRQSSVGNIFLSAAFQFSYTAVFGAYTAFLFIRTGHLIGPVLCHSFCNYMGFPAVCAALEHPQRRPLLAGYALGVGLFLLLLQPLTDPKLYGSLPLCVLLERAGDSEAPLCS

Escherichia coli = assay: microbe, parasite or virus in culture
A-375 [6] = assay: MITF: Counter assay: A375 proliferation Measured in Cell-Based System Using Plate Reader - 2084-03_Inhibitor_Dose_DryPowder_Activity. [Related pubchem assays (depositor defined):AID488944]; assay type: functional; conditions: Homo sapiens
[7] = NIH-3T3 fibroblast cytotoxicity, dose response, cytotoxicity control, cell-based, fluorescence, Alamar Blue, secondary assay (AID 2327); assay type: functional;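 also: NIH-3T3 mouse fibroblasts cultured with fluconazole at 8 µg/mL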
[8] = fluconazole-exposed Candida albicans growth modulators – fluorescence, retest, confirmation (AID 2467); assay type: functional, cell-based
[9] = target: T5, Microphthalmia-associated transcription factor (Homo sapiens, UniProt O75030); assay: reducers of TRPM1 reporter luminescence, concentration series – cell-based, SK-MEL-5, cherry-picked, set 3, MITF inhibitor project, dose response (AID 493073); assay type: functional;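 also: SK-MEL-5 melanoma cells with luciferase driven by the MITF target TRPM1 promoter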
T5 sequence (O75030 whole entry): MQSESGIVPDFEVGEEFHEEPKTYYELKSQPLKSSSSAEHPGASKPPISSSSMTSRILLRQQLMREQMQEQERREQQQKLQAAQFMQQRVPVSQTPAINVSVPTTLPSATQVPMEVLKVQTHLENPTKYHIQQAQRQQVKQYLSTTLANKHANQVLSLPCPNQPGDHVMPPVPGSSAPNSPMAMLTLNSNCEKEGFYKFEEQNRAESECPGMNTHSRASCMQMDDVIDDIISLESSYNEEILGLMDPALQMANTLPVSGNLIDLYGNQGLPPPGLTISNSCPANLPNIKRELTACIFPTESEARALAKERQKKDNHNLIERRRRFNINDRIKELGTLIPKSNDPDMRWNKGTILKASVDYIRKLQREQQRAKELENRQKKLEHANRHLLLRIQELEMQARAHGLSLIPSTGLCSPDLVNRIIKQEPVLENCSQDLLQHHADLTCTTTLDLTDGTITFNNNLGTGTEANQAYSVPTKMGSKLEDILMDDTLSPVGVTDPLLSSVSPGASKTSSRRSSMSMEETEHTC

A-375 [10] = assay: proliferation inhibition in MITF-low A375 cells – cell-based, cherry-pick samples, set 2, counter-screen for MITF modulator project, dose response (AID 540335); assay type: functional; conditions: Homo sapiens
Galanin receptor type 3 = target: T6, Galanin receptor type 3 (Homo sapiens, UniProt O60755); assay: Fluorescence-based cell-based primary high throughput dose response assay to identify antagonists of the Galanin Receptor 3 (GalR3).; assay type: functional
T6 sequence (O60755 whole entry): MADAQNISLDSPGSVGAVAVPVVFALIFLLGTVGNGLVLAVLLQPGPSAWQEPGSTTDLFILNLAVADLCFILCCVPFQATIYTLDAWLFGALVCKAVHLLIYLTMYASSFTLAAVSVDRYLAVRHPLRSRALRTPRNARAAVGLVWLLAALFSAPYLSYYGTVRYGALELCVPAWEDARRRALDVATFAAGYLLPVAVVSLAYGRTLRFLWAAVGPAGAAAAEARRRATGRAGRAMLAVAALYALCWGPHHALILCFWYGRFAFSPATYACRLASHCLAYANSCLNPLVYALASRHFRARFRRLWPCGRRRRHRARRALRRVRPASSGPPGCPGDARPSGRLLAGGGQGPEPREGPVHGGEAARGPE

cells = assay type: functional, cell-based; conditions: HEK-CNG
[11] = decrease of insulin promoter-GFP reporter – imaging, high-content screening, mouse beta cells (AID 1628); assay type: functional; conditions: MIN6
[12] = MIN6 cell viability loss – mouse insulinoma, cytotoxicity control, dose response (AID 2122); assay type: functional;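 also: confirmatory high-throughput counterscreen run to flag cytotoxic compounds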
INS1 = assay: INS-1E survival protection against cytokine death – cell-based, luminescence, retest, dose response (AID 449756); assay type: functional; conditions: Rattus norvegicus;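 also: cell death triggered by IL-1 beta plus TNF-alpha plus IFN-gamma mixture; protective hits raise ATP signal compared with cytokine alone wells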

Chain of 5-hydroxytryptamine receptor 5A (P47898 whole entry): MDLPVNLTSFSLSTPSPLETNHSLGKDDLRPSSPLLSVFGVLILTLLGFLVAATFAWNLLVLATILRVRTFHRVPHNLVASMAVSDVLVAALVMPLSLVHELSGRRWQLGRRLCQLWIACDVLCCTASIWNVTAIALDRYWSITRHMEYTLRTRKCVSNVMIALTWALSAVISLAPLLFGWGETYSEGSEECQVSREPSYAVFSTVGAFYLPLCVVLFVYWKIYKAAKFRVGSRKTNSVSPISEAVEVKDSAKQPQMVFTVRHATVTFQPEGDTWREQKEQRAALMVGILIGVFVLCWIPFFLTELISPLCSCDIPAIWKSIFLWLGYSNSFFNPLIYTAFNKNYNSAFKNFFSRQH
Chain of Delta-type opioid receptor (P41143 whole entry): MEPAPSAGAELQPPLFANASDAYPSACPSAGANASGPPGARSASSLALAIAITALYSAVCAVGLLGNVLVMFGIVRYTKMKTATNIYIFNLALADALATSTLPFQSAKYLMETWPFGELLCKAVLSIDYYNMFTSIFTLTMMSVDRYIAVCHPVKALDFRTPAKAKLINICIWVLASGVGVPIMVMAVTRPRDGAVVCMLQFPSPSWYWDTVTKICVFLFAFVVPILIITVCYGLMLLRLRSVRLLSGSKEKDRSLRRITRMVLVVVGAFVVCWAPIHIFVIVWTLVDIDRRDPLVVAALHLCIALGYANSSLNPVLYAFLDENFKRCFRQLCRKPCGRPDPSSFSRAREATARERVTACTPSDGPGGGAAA
Chain of Mu-type opioid receptor (P35372 whole entry): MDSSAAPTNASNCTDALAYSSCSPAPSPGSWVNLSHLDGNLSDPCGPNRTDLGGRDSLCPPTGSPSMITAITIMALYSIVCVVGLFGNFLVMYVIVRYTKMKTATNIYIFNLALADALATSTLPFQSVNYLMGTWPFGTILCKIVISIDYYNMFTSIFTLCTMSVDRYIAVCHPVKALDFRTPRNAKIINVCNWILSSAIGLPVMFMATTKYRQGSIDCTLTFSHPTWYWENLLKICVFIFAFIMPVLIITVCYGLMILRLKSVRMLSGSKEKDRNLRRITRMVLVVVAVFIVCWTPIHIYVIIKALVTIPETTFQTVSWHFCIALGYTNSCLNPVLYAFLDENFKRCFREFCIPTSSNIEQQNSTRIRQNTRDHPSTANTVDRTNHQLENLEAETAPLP
Chain of Trypsin (P00761 whole entry): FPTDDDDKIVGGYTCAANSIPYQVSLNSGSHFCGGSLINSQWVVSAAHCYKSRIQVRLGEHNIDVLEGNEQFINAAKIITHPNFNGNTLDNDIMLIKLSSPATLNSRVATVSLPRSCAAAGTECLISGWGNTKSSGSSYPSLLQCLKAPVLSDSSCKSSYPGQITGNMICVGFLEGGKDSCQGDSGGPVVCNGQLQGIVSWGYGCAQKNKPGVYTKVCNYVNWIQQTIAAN

## CC(=O)NC(CC(=O)NCC(c1ccco1)N(C)C)c1ccccc1 (stereo unspecified)
[1]
  EC50: 0.0533 µM (active)
[2]
  EC50: 31 µM (inactive)
Mu-type opioid receptor
  EC50: > 92.5 µM (inactive)
[3]
  EC50: > 92.5 µM (inactive)

## CCOC(=O)C1(Cc2ccccc2)CCN(Cc2cccn2-c2nccs2)CC1
[2]
  EC50: > 92.5 µM (inactive)
Mu-type opioid receptor
  EC50: > 92.5 µM (inactive)
[3]
  EC50: > 92.5 µM (inactive)

## COc1ccc(/C=N/NC(=O)c2[nH]c3ccc(Br)cc3c2-c2ccccc2)c(C(=O)O)c1OC
Aminopeptidase N
  IC50: 65.3 µM (active)

## CCOC(=O)c1c(NC(=O)CSc2ccccc2C(=O)O)sc(C)c1C
Aminopeptidase N
  IC50: 52.3 µM (active)

## CN(c1ccccc1)c1ccc(/C=N/NC(=O)CC#N)cc1
Trypsin
  AC50: 5.99 µM (active)
CAAX prenyl protease 2 [4]
  AC50: 6.98 µM (active)
CAAX prenyl protease 2 [5]
  AC50: 2.64 µM (active)

## Cc1nn(Cc2ccccc2)c(C)c1C(=O)NCc1ccccc1
Escherichia coli
  AC50: 42.7 µM (active)

## COc1ccc(-c2nc3n(c2C)Cc2ccccc2-3)cc1
A-375 [6]
  AC50: 30.1 µM (active)

## CN(C)c1ccc(/C=N/NC(=O)CNC(=O)c2ccco2)cc1
CAAX prenyl protease 2 [4]
  AC50: 7.99 µM (active)
CAAX prenyl protease 2 [5]
  AC50: 5.17 µM (active)

## O=C(Nc1ccccc1)c1ccc(NC2CCCCC2)c(S(=O)(=O)N2CCOCC2)c1
[2]
  EC50: > 92.5 µM (inactive)
Mu-type opioid receptor
  EC50: > 92.5 µM (inactive)
[3]
  EC50: > 92.5 µM (inactive)

## CC(C)(C)c1ccc(-c2c[n+](-c3ccc(Br)cc3)c3n2CCCS3)cc1
[7]
  EC50: > 160 µM (inactive)
[8]
  EC50: 0.199 µM (active)
[9]
  AC50: 3.2 µM (active)
A-375 [10]
  AC50: 34.1 µM (active)
Galanin receptor type 3
  IC50: 10.1 µM (inactive)
cells
  EC50: > 29.9 µM (inactive)

## CC(C)(C)c1ccc(C(=O)O)c(C(=O)c2ccc(C(=O)O)cc2)c1
Escherichia coli
  AC50: 49.3 µM (active)

## Cn1cc(CNCc2ccc(OC(F)(F)F)cc2)c(-c2ccc3c(c2)OCCO3)n1
[11]
  IC50: 0.272 µM (active)
[12]
  IC50: < 0.25 µM (active)
INS1
  AC50: 1.04 µM (active)

## CC1(c2ccncc2)Nc2ccccc2-c2nc3ccccc3n21 (stereo unspecified)
Trypsin
  AC50: 9.63 µM (active)
CAAX prenyl protease 2 [4]
  AC50: 68 µM (active)
